Results taken from ChEMBL document CHEMBL5518181, “Studies of antibacterial activity (in vitro and in vivo) and mode of action for des-acyl tridecaptins (DATs)” (Eur J Med Chem, 2024).
Calls of active or inactive are those of the source.

Experiments:
Escherichia coli [1] = test: Antibacterial activity against Escherichia coli ATCC 25922 harboring hldE knock-out assessed as inhibition of bacterial growth incubated for 18 hrs; type: functional; settings: read-out: MIC100
Klebsiella pneumoniae [2] = test: Antibacterial activity against Klebsiella pneumoniae ATCC 13883 assessed as inhibition of bacterial growth incubated for 18 hrs in presence of 5 mM KCl; type: functional, organism-based
Escherichia coli [3] = test: Antibacterial activity against colistin resistant Escherichia coli NCTC 13846 harboring mcr-1 gene assessed as inhibition of bacterial growth incubated for 18 hrs; type: functional; settings: read-out: MIC100
[4] = Drug uptake in Acinetobacter baumannii ATCC 19606 whole cells at 10 uM incubated for 10 mins by LC-MS/MS analysis; type: ADME
Klebsiella pneumoniae [5] = test: Antibacterial activity against Klebsiella pneumoniae ATCC 13883 assessed as inhibition of bacterial growth incubated for 18 hrs in presence of 25 mM bicarbonate; type: functional, organism-based
[6] = Clearance in rat microsomes; type: ADME, Microsome
[7] = Drug uptake in Escherichia coli ATCC 25922 whole cells at 10 uM incubated for 10 mins by LC-MS/MS analysis; type: ADME
[8] = Hydrophobicity of compound assessed as %MeCN at peak elution by RP-HPLC analysis; type: physicochemical
[9] = Aqueous solubility of compound at pH 4.6; type: physicochemical
Cell membrane [10] = test: Induction of membrane permeabilization in Escherichia coli ATCC 25922 at 64 ug/ml measured after 30 mins by Sytox Green labelling based microscopic analysis; type: cell membranes; settings: dose 64.0 µg/ml
Citrobacter freundii = test: Antibacterial activity against Citrobacter freundii ATCC 8090 assessed as inhibition of bacterial growth incubated for 18 hrs; type: functional; settings: read-out: MIC100
Enterobacter cloacae = test: Antibacterial activity against Enterobacter cloacae ATCC 23355 assessed as inhibition of bacterial growth incubated for 18 hrs; type: functional; settings: read-out: MIC100
Klebsiella pneumoniae [11] = test: Antibacterial activity against wild-type Klebsiella pneumoniae ATCC 13883 assessed as inhibition of bacterial growth incubated for 18 hrs in presence of 50% heat inactivated human serum; type: functional; settings: read-out: MIC100
Cell membrane [12] = test: Induction of membrane permeabilization in Escherichia coli ATCC 25922 at 64 ug/ml measured after 2 hrs by Sytox Green labelling based microscopic analysis; type: cell membranes; settings: dose 64.0 µg/ml
Klebsiella pneumoniae [13] = test: Antibacterial activity against Klebsiella pneumoniae ATCC 13883 assessed as inhibition of bacterial growth incubated for 18 hrs in presence of 2 mM CaCl2; type: functional, organism-based
Proteus mirabilis [14] = test: Antibacterial activity against Proteus mirabilis ATCC 7002 assessed as inhibition of bacterial growth incubated for 18 hrs; type: functional; settings: read-out: MIC100
[15] = Drug uptake in Pseudomonas aeruginosa PAO1 whole cells at 10 uM incubated for 10 mins by LC-MS/MS analysis; type: ADME
[16] = Drug uptake in Proteus mirabilis ATCC 7002 whole cells at 10 uM incubated for 10 mins by LC-MS/MS analysis; type: ADME
Proteus mirabilis [17] = test: Antibacterial activity against Proteus mirabilis ATCC 25933 assessed as inhibition of bacterial growth incubated for 18 hrs; type: functional; settings: read-out: MIC100
[18] = Drug localization in cytoplasm of Escherichia coli ATCC 25922 at 10 uM incubated for 10 mins by LC-MS/MS analysis; type: ADME, subcellular
Staphylococcus aureus [19] = test: Antibacterial activity against […] assessed as inhibition of bacterial growth incubated for 18 hrs; type: functional; settings: ATCC 29213, read-out: MIC100
Cell membrane [20] = test: Induction of membrane permeabilization in Klebsiella pneumoniae ATCC 13883 at 64 ug/ml measured after 30 mins by Sytox Green labelling based microscopic analysis; type: cell membranes; settings: dose 64.0 µg/ml
Salmonella typhimurium = test: Antibacterial activity against Salmonella typhimurium ATCC 13311 assessed as inhibition of bacterial growth incubated for 18 hrs; type: functional, Salmonella enterica subsp. enterica serovar Typhimurium; settings: Salmonella enterica, read-out: MIC100
Staphylococcus aureus [21] = test: Antibacterial activity against wild type Staphylococcus aureus USA300 assessed as inhibition of bacterial growth incubated for 18 hrs; type: functional; settings: read-out: MIC100
Klebsiella pneumoniae [22] = test: Antibacterial activity against Klebsiella pneumoniae ATCC 13883 assessed as inhibition of bacterial growth incubated for 18 hrs in presence of 2 mM MgCl2; type: functional, organism-based
Escherichia coli [23] = test: Antibacterial activity against Escherichia coli ATCC 25922 harboring tolC knock-out assessed as inhibition of bacterial growth incubated for 18 hrs; type: functional; settings: read-out: MIC100
[24] = Clearance in human microsomes; type: ADME, Microsome
[25] = Cytotoxicity against human HepG2 cells incubated for 40 hrs by celltiter-glo luminescent cell viability assay; type: toxicity, cell-based
Escherichia coli [26] = test: Antibacterial activity against Escherichia coli ATCC 25922 assessed as inhibition of bacterial growth incubated for 18 hrs in presence of 2 mM MgCl2; type: functional, organism-based
Escherichia coli [27] = test: Antibacterial activity against Escherichia coli ATCC BAA-2469 expressing NDM-1 assessed as inhibition of bacterial growth incubated for 18 hrs; type: functional; settings: read-out: MIC100
Escherichia coli [28] = test: Antibacterial activity against wild-type Escherichia coli ATCC 25922 assessed as inhibition of bacterial growth incubated for 18 hrs; type: functional; settings: read-out: MIC100
Escherichia coli [29] = test: Antibacterial activity against Escherichia coli ATCC 25922 assessed as inhibition of bacterial growth incubated for 18 hrs in presence of 150 mM NaCl; type: functional, organism-based
Escherichia coli [30] = test: Antibacterial activity against Escherichia coli ATCC 25922 assessed as inhibition of bacterial growth incubated for 18 hrs in presence of 5 mM KCl; type: functional, organism-based
Serratia marcescens = test: Antibacterial activity against intrinsically colistin resistant Serratia marcescens ATCC 13880 assessed as inhibition of bacterial growth incubated for 18 hrs; type: functional; settings: read-out: MIC100
Acinetobacter baumannii = test: Antibacterial activity against wild-type Acinetobacter baumannii ATCC 19606 assessed as inhibition of bacterial growth incubated for 20 hrs; type: functional; settings: read-out: MIC100
Cell membrane [31] = test: Induction of membrane permeabilization in Klebsiella pneumoniae ATCC 13883 at 64 ug/ml measured after 2 hrs by Sytox Green labelling based microscopic analysis; type: cell membranes; settings: dose 64.0 µg/ml
Pseudomonas aeruginosa [32] = test: Antibacterial activity against efflux-deficient Pseudomonas aeruginosa PAO750 assessed as inhibition of bacterial growth incubated for 18 hrs; type: functional; settings: read-out: MIC100
Escherichia coli [33] = test: Antibacterial activity against Escherichia coli ATCC 25922 assessed as inhibition of bacterial growth incubated for 18 hrs in presence of 25 mM bicarbonate; type: functional, organism-based
[34] = Drug uptake in Escherichia coli ATCC 25922 at 10 uM incubated for 10 mins by LC-MS/MS analysis; type: ADME
[35] = Binding affinity to gram negative bacterial lipid II assessed as dissociation constant by ITC analysis; parameters: species or system Bacteria
Klebsiella pneumoniae [36] = test: Antibacterial activity against Klebsiella pneumoniae ATCC 43816 assessed as inhibition of bacterial growth incubated for 18 hrs; type: functional; settings: read-out: MIC100
Providencia stuartii = test: Antibacterial activity against Providencia stuartii ATCC 25826 assessed as inhibition of bacterial growth incubated for 18 hrs; type: functional; settings: read-out: MIC100
Klebsiella pneumoniae [37] = test: Antibacterial activity against Klebsiella pneumoniae ATCC BAA-2470 expressing NDM-1 assessed as inhibition of bacterial growth incubated for 18 hrs; type: functional; settings: read-out: MIC100
Lipopolysaccharide (LPS) [38] = test: Binding affinity to Pseudomonas aeruginosa LPS assessed as dissociation constant by ITC analysis; type: subcellular
Escherichia coli [39] = test: Antibacterial activity against wild-type Escherichia coli ATCC 25922 assessed as inhibition of bacterial growth incubated for 18 hrs in presence of 50% heat inactivated human serum; type: functional; settings: read-out: MIC100
Escherichia coli [40] = test: Antibacterial activity against Escherichia coli ATCC 25922 assessed as inhibition of bacterial growth incubated for 18 hrs in presence of 2 mM CaCl2; type: functional, organism-based
Klebsiella pneumoniae [41] = test: Antibacterial activity against wild-type Klebsiella pneumoniae ATCC 13883 assessed as inhibition of bacterial growth incubated for 18 hrs; type: functional; settings: read-out: MIC100
Cell membrane [42] = test: Induction of membrane permeabilization in Escherichia coli ATCC 25922 at 64 ug/ml measured immediately by Sytox Green labelling based microscopic analysis; type: cell membranes; settings: dose 64.0 µg/ml
[43] = Lipophilicity, logD of compound at pH 7.4; type: physicochemical; settings: buffer
Pseudomonas aeruginosa [44] = test: Antibacterial activity against wild-type Pseudomonas aeruginosa PAO1 assessed as inhibition of bacterial growth incubated for 24 hrs; type: functional; settings: read-out: MIC100
[45] = Clearance in mouse microsomes; type: ADME, Microsome
[46] = Hemolytic activity in human red blood cells at 400 ug/ml incubated for 45 mins by spectrophotometric analysis relative to control; type: toxicity, cell-based, Erythrocyte; settings: red blood cells (erythrocytes), at 400 µg/mL, read-out: Activity
Klebsiella aerogenes = test: Antibacterial activity against Enterobacter aerogenes ATCC 13048 assessed as inhibition of bacterial growth incubated for 18 hrs; type: functional; settings: read-out: MIC100
Morganella morganii = test: Antibacterial activity against Morganella morganii ATCC 25830 assessed as inhibition of bacterial growth incubated for 18 hrs; type: functional; settings: read-out: MIC100
[47] = Aqueous solubility of compound at pH 7.4; type: physicochemical
Lipopolysaccharide (LPS) [48] = test: Binding affinity to Escherichia coli O55:B5 LPS assessed as dissociation constant by ITC analysis; type: subcellular
Klebsiella pneumoniae [49] = test: Antibacterial activity against Klebsiella pneumoniae ATCC 13883 assessed as inhibition of bacterial growth incubated for 18 hrs in presence of 150 mM NaCl; type: functional, organism-based

CC[C@H](C)[C@@H](NC(=O)[C@@H](NC(=O)[C@H](CCC(=O)O)NC(=O)[C@H](Cc1ccccc1)NC(=O)[C@@H](CCN)NC(=O)[C@H](CCN)NC(=O)[C@H](CO)NC(=O)[C@@H](Cc1c[nH]c2ccccc12)NC(=O)[C@@H](CO)NC(=O)CNC(=O)[C@@H](CCN)NC(=O)[C@H](N)C(C)C)C(C)C)C(=O)N[C@@H](C)C(=O)O
5.7 µM: Kd (Lipopolysaccharide (LPS) [48])
0.6 µM: Kd [35]
~ 60 ng: Drug uptake [4] | Drug uptake [7] | Drug uptake [15] | Drug uptake [16]
25 µL/min/mg: microsomal CLint [45]
inactive: Activity (Cell membrane [10]) | Activity (Cell membrane [20]) | Activity (Cell membrane [42])
32 µg/mL: MIC (Escherichia coli [3]) | MIC (Citrobacter freundii) | MIC (Staphylococcus aureus [19]) | MIC (Escherichia coli [28]) | MIC (Serratia marcescens) | MIC (Acinetobacter baumannii) | MIC (Klebsiella pneumoniae [37]) | MIC (Escherichia coli [39]) | MIC (Klebsiella pneumoniae [41])
3.6%: hemolysis at 0.75 h, 400 ug/ml [46]
108 µL/min/mg: microsomal CLint [6]
13.5 µM: Kd (Lipopolysaccharide (LPS) [38])
76 µg/mL: IC50 at 40 h [25]
42%: MeCN percentage at peak elution [8]
> 1000 µg/mL: solubility [9] | solubility [47]
1.09: logD [43]
Active: Drug uptake [18] | Drug uptake [34]
> 32 µg/mL: MIC (Enterobacter cloacae) | MIC (Proteus mirabilis [17]) | MIC (Salmonella typhimurium) | MIC (Staphylococcus aureus [21]) | MIC (Escherichia coli [23]) | MIC (Escherichia coli [27]) | MIC (Pseudomonas aeruginosa [32]) | MIC (Providencia stuartii) | MIC (Klebsiella aerogenes) | MIC (Morganella morganii)
8 µg/mL: MIC (Escherichia coli [1]) | MIC (Klebsiella pneumoniae [11]) | MIC (Klebsiella pneumoniae [36])
> 64 µg/mL: MIC (Proteus mirabilis [14]) | MIC (Pseudomonas aeruginosa [44])
active: Activity (Klebsiella pneumoniae [2]) | Activity (Klebsiella pneumoniae [5]) | Activity (Cell membrane [12]) | Activity (Klebsiella pneumoniae [13]) | Activity (Klebsiella pneumoniae [22]) | Activity (Escherichia coli [26]) | Activity (Escherichia coli [29]) | Activity (Escherichia coli [30]) | Activity (Cell membrane [31]) | Activity (Escherichia coli [33]) | Activity (Escherichia coli [40]) | Activity (Klebsiella pneumoniae [49])
22 µL/min/mg: microsomal CLint [24]
